Patent publication US4575554A, “Substituted 2-pyridylmethylthio- and sulfinyl-benzimidazoles as gastric antisecretory agents” (The Upjohn Company, priority 1984, dated 1986)

Key:
(H^+ -K^+)ATPase = molecular target: T1, (H^+ -K^+)ATPase (Rattus norvegicus, UniProt P09626); assay: in vivo inactivation of (H^+ -K^+)ATPase in the rat; conditions: shown to be the most effective
T1 construct: from tissue; host or cells: rat, in vivo (endogenous enzyme)

gastric acid secretion = assay: inhibition of gastric acid secretion in the rat, duration of activity after subcutaneous administration; format: in vivo; conditions: after 6 days, 50 mg/kg
Excerpt: A significant advantage of certain of the compounds of the instant invention, particularly those of the Formula I wherein R1 is hydrogen, X is =S(O), R3 is methyl or ethyl, R4 is hydrogen, and R2 is methylthio, ethylthio, or propylthio, is their long duration of activity when administered subcutaneously. Thus, even after 6 days 2[(4-ethylthio-3-ethylpyridin-2-ylmethyl)sulfinyl]-benzimidazole and 2-[(4-ethylthio-3-methylpyridin-2-ylmethyl)sulfinyl]-benzimidazole inhibited gastric acid secretion in the rat 68 and 82%, respectively, when administered subcutaneously at a dose of 50 mg/kg.

isolated gastric glands = assay: inhibition of acid secretion in isolated gastric glands of the rabbit; format: cell-based; conditions: Oryctolagus cuniculus, shown to be the most effective, read-out: ID50 (the source's name)
gastric(H^+ -K^+)ATPase = molecular target: T2, gastric(H^+ -K^+)ATPase (Sus scrofa, UniProt P19156); assay: inhibition of K^+ -dependent ATP hydrolysis by isolated hog gastric membranes enriched with gastric (H^+ -K^+)ATPase; format: biochemical; conditions: shown to be the most effective, read-out: ID50 (the source's name)
T2 construct: isolated hog gastric membranes enriched with gastric(H^+ -K^+)ATPase; from tissue; host or cells: hog gastric membranes
T2 sequence (P19156 2-1034 limits assumed): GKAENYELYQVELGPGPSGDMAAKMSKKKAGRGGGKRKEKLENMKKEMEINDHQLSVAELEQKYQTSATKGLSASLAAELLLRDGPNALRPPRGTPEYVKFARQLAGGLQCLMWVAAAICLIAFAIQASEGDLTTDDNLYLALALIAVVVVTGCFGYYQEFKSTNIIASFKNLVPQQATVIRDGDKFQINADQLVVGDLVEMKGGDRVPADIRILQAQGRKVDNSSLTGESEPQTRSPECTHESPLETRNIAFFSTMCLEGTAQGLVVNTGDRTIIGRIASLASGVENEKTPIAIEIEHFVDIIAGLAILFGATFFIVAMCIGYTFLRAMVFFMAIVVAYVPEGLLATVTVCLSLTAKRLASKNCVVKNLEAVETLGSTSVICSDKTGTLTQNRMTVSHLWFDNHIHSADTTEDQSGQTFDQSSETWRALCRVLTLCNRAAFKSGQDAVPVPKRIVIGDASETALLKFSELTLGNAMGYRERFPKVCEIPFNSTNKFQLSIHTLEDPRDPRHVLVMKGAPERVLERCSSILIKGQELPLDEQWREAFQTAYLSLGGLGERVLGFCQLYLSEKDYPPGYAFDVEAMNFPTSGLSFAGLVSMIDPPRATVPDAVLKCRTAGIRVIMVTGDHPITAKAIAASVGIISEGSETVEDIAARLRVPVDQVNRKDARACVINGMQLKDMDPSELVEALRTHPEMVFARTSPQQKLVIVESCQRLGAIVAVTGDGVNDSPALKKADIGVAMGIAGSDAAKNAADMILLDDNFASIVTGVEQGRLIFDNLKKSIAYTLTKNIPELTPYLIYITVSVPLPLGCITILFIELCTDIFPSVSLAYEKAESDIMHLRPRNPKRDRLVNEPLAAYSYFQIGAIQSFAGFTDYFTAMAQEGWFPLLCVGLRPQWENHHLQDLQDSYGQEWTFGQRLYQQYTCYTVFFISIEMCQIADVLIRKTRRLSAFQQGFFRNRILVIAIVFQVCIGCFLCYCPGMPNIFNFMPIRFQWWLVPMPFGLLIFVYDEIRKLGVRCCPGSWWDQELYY
T2 sequence (P18434 whole entry partner): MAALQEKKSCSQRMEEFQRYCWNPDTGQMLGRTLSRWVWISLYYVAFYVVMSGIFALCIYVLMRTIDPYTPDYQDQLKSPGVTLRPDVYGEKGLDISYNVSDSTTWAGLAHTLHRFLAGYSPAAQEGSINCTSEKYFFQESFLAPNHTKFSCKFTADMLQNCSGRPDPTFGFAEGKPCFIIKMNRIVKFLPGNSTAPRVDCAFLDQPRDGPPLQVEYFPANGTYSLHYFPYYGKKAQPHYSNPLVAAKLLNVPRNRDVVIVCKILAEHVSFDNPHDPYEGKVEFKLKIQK

T1 sequence (P09626 2-1033 limits assumed): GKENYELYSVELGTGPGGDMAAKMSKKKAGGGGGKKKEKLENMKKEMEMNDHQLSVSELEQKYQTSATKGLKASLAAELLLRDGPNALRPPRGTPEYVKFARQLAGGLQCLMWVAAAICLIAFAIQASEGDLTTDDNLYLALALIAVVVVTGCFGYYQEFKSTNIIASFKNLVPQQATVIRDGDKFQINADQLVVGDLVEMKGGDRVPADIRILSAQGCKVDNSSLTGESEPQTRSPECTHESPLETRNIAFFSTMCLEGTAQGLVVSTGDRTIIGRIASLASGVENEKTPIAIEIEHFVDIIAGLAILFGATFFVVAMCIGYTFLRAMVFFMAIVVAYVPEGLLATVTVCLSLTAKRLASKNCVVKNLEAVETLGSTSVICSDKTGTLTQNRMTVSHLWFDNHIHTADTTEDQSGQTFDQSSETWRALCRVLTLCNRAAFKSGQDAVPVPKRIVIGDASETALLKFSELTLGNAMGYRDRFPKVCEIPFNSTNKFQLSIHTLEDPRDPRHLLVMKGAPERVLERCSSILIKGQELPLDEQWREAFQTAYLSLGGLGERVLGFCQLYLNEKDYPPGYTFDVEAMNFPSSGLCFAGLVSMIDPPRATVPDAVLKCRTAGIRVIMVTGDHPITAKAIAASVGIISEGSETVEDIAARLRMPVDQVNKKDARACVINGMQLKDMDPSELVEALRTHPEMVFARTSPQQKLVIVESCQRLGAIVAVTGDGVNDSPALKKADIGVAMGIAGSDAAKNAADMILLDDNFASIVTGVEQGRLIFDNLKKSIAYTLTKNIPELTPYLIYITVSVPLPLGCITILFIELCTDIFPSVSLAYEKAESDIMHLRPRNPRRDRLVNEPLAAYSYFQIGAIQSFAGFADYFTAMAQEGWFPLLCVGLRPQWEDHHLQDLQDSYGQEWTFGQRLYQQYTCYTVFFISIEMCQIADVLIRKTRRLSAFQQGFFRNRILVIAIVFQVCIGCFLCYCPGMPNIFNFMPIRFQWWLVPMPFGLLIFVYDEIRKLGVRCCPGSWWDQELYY
T1 sequence (P18598 whole entry partner): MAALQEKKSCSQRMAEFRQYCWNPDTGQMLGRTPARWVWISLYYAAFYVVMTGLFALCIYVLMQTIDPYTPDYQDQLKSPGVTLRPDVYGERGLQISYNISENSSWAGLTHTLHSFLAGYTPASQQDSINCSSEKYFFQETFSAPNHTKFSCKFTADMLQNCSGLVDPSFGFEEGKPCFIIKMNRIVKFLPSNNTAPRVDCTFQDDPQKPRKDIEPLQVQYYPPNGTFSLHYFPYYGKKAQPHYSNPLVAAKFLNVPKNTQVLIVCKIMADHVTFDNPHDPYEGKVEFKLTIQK

| Compound | ED50 ((H^+ -K^+)ATPase) [mg/kg] | inhibition of gastric acid secretion (gastric acid secretion) [%] | IC50 (isolated gastric glands) [nM] | IC50 (gastric(H^+ -K^+)ATPase) [nM] |
| --- | --- | --- | --- | --- |
| CCSc1ccnc(C[S+]([O-])c2nc3ccccc3[nH]2)c1C (centres unmarked) [Compound 7, 2-[(4-ethylthio-3-methylpyridin-2-ylmethyl)sulfinyl]-benzimidazole] | 1 | 82 |  |  |
| CCSc1ccnc(C[S+]([O-])c2nc3ccccc3[nH]2)c1CC (centres unmarked) [Compound 12, 2-[(4-ethylthio-3-ethylpyridin-2-ylmethyl)sulfinyl]-benzimidazole] |  | 68 | 100 |  |
| CCc1c(OC)ccnc1C[S+]([O-])c1nc2ccccc2[nH]1 (centres unmarked) [Compound 15, 2-[(4-methoxy-3-ethylpyridin-2-ylmethyl)sulfinyl]-benzimidazole] |  |  |  | 3000 |
